Source: patent US6914045B2, “Glycopeptide antibiotics” (Wyeth Holdings Corporation, priority 2001, dated 2005)
Converted amounts (≈) assume the structure as drawn. One block for each molecule: values may come before it.

Experiments:
Assay in all cases: in vitro antibacterial evaluation, MIC by broth dilution
Assay type in all cases: cell-based
Staphylococcus sp. = settings: broth dilution, 18 hours at 35° C.; for MIC Staphylococcus aureus (GC 1131): strain GC 1131; for MIC Staphylococcus aureus (ATCC 29213): strain ATCC 29213; for MIC Staphylococcus aureus (GC 3051): strain GC 3051; for MIC Staphylococcus aureus (GC 3053): strain GC 3053; for MIC Staphylococcus aureus (GC 4541): strain GC 4541; for MIC Staphylococcus aureus (GC 4542): strain GC 4542; for MIC Staphylococcus aureus-SMITH (GC 4543): strain GC 4543; for MIC Staphylococcus aureus (GC 4544): strain GC 4544; for MIC Staphylococcus aureus (GC 4545): strain GC 4545; for MIC Staphylococcus haemolyticus (GC 4546): strain GC 4546; for MIC Coagulase Negative Staphylococcus (GC 4547): strain GC 4547; for MIC Coagulase Negative Staphylococcus (GC 4548): strain GC 4548; for MIC Coagulase Negative Staphylococcus (GC 4549): strain GC 4549; for MIC Coagulase Negative Staphylococcus (GC 4551): strain GC 4551; for MIC Coagulase Negative Staphylococcus (GC 6257): strain GC 6257
How it was run: (§1)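 Read-out: the lowest concentration at which the test strain fails to grow. Serial dilutions (64-0.06 μg/mL) in Muller-Hinton II […], 5×10^5 CFU/mL inoculum, NCCLS M7-A2 procedure.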

Streptococcus sp. = settings: broth dilution, 18 hours at 35° C.
How it was run: as §1

Enterococcus sp. = settings: broth dilution, 18 hours at 35° C.
How it was run: as §1

Escherichia coli = settings: 18 hours at 35° C.

MIC Staphylococcus aureus (GC 1131) (Staphylococcus sp.; inoculum 5×10^5 CFU/mL): 2 µg/mL (≈ 1.45 µM)
MIC Staphylococcus aureus (ATCC 29213) (Staphylococcus sp.): 1 µg/mL (≈ 0.727 µM)
MIC Staphylococcus aureus (GC 1131) (Staphylococcus sp.): 2 µg/mL (≈ 1.45 µM)
MIC Staphylococcus aureus (GC 3051) (Staphylococcus sp.): 2 µg/mL (≈ 1.45 µM)
MIC Staphylococcus aureus (GC 3053) (Staphylococcus sp.): 4 µg/mL (≈ 2.91 µM)
MIC Staphylococcus aureus (GC 4541) (Staphylococcus sp.): 1 µg/mL (≈ 0.727 µM)
MIC Staphylococcus aureus (GC 4542) (Staphylococcus sp.): 1 µg/mL (≈ 0.727 µM)
MIC Staphylococcus aureus-SMITH (GC 4543) (Staphylococcus sp.): 2 µg/mL (≈ 1.45 µM)
MIC Staphylococcus aureus (GC 4544) (Staphylococcus sp.): 2 µg/mL (≈ 1.45 µM)
MIC Staphylococcus aureus (GC 4545) (Staphylococcus sp.): 1 µg/mL (≈ 0.727 µM)
MIC Coagulase Negative Staphylococcus (GC 4547) (Staphylococcus sp.): 2 µg/mL (≈ 1.45 µM)
MIC Coagulase Negative Staphylococcus (GC 4548) (Staphylococcus sp.): 1 µg/mL (≈ 0.727 µM)
MIC Coagulase Negative Staphylococcus (GC 4549) (Staphylococcus sp.): 1 µg/mL (≈ 0.727 µM)
MIC Coagulase Negative Staphylococcus (GC 4551) (Staphylococcus sp.): 2 µg/mL (≈ 1.45 µM)
MIC Coagulase Negative Staphylococcus (GC 6257) (Staphylococcus sp.): 1 µg/mL (≈ 0.727 µM)
MIC Streptococcus agalactiae (GC 4564) (Streptococcus sp.): 1 µg/mL (≈ 0.727 µM)
MIC Streptococcus pneumoniae (ATCC 6301) (Streptococcus sp.): 0.5 µg/mL (≈ 0.364 µM)
MIC Streptococcus pneumoniae (GC 1894) (Streptococcus sp.): 0.12 µg/mL (≈ 0.0872 µM)
MIC Streptococcus pneumoniae (GC 4565) (Streptococcus sp.): 0.25 µg/mL (≈ 0.182 µM)
MIC Streptococcus pyogenes (GC 4563) (Streptococcus sp.): 0.5 µg/mL (≈ 0.364 µM)
MIC Streptococcus pneumoniae (ATCC 6301) (Streptococcus sp.; inoculum 5×10^5 CFU/mL, strain ATCC 6301): 0.5 µg/mL (≈ 0.364 µM)
MIC Streptococcus pneumoniae (GC 1894) (Streptococcus sp.; inoculum 5×10^5 CFU/mL, strain GC 1894): 0.12 µg/mL (≈ 0.0872 µM)
MIC Streptococcus pyogenes (GC 4563) (Streptococcus sp.; inoculum 5×10^5 CFU/mL, strain GC 4563): 0.5 µg/mL (≈ 0.364 µM)
MIC Streptococcus agalactiae (GC 4564) (Streptococcus sp.; inoculum 5×10^5 CFU/mL, strain GC 4564): 1 µg/mL (≈ 0.727 µM)
MIC Streptococcus pneumoniae (GC 4565) (Streptococcus sp.; inoculum 5×10^5 CFU/mL, strain GC 4565): 0.25 µg/mL (≈ 0.182 µM)
MIC Enterococcus avium (GC 4558) (Enterococcus sp.): 8 µg/mL (≈ 5.82 µM)
MIC Enterococcus faecalis (ATCC 29212) (Enterococcus sp.): 8 µg/mL (≈ 5.82 µM)
MIC Enterococcus faecalis (GC 2242) (Enterococcus sp.): 4 µg/mL (≈ 2.91 µM)
MIC Enterococcus faecalis (GC 2691) (Enterococcus sp.): 8 µg/mL (≈ 5.82 µM)
MIC Enterococcus faecalis (GC 3059) (Enterococcus sp.): 8 µg/mL (≈ 5.82 µM)
MIC Enterococcus faecalis (GC 4552) (Enterococcus sp.): 8 µg/mL (≈ 5.82 µM)
MIC Enterococcus faecalis (GC 4553) (Enterococcus sp.): 8 µg/mL (≈ 5.82 µM)
MIC Enterococcus faecalis (GC 4554) (Enterococcus sp.): 8 µg/mL (≈ 5.82 µM)
MIC Enterococcus faecalis (GC 6189) (Enterococcus sp.): 8 µg/mL (≈ 5.82 µM)
MIC Enterococcus faecium (GC 2243) (Enterococcus sp.): 8 µg/mL (≈ 5.82 µM)
MIC Enterococcus faecium (GC 4556) (Enterococcus sp.): 4 µg/mL (≈ 2.91 µM)
MIC Enterococcus faecium (GC 4557) (Enterococcus sp.): 4 µg/mL (≈ 2.91 µM)
MIC Enterococcus faecalis (ATCC 29212) (Enterococcus sp.; inoculum 5×10^5 CFU/mL, strain ATCC 29212): 8 µg/mL (≈ 5.82 µM)
MIC Enterococcus faecalis (GC 2242) (Enterococcus sp.; inoculum 5×10^5 CFU/mL, strain GC 2242): 4 µg/mL (≈ 2.91 µM)
MIC Enterococcus faecium (GC 2243) (Enterococcus sp.; inoculum 5×10^5 CFU/mL, strain GC 2243): 8 µg/mL (≈ 5.82 µM)
MIC Enterococcus faecalis (GC 2691) (Enterococcus sp.; inoculum 5×10^5 CFU/mL, strain GC 2691): 8 µg/mL (≈ 5.82 µM)
MIC Enterococcus faecalis (GC 3059) (Enterococcus sp.; inoculum 5×10^5 CFU/mL, strain GC 3059): 8 µg/mL (≈ 5.82 µM)
MIC Enterococcus faecalis (GC 4552) (Enterococcus sp.; inoculum 5×10^5 CFU/mL, strain GC 4552): 8 µg/mL (≈ 5.82 µM)
MIC Enterococcus faecalis (GC 4553) (Enterococcus sp.; inoculum 5×10^5 CFU/mL, strain GC 4553): 8 µg/mL (≈ 5.82 µM)
MIC Enterococcus faecalis (GC 4554) (Enterococcus sp.; inoculum 5×10^5 CFU/mL, strain GC 4554): 8 µg/mL (≈ 5.82 µM)
MIC Enterococcus faecium (GC 4556) (Enterococcus sp.; inoculum 5×10^5 CFU/mL, strain GC 4556): 4 µg/mL (≈ 2.91 µM)
MIC Enterococcus faecium (GC 4557) (Enterococcus sp.; inoculum 5×10^5 CFU/mL, strain GC 4557): 4 µg/mL (≈ 2.91 µM)
MIC Enterococcus avium (GC 4558) (Enterococcus sp.; inoculum 5×10^5 CFU/mL, strain GC 4558): 8 µg/mL (≈ 5.82 µM)
MIC Enterococcus faecalis (GC 6189) (Enterococcus sp.; inoculum 5×10^5 CFU/mL, strain GC 6189): 8 µg/mL (≈ 5.82 µM)
MIC Escherichia coli (ATCC 25922) (Escherichia coli): 64 µg/mL (≈ 46.5 µM)
MIC Escherichia coli (GC 4559) (Escherichia coli): 32 µg/mL (≈ 23.3 µM)
MIC Escherichia coli (GC 4560) (Escherichia coli): 2 µg/mL (≈ 1.45 µM)
Structure (SMILES): CC(c1ccccc1)C1NC(=O)CNC(=O)C(CO)NC(=O)C(C(O)C2CNC(=N)N2C2OC(CO)C(O)C(O)C2O)NC(=O)C(C(O)C2CNC(=N)N2)NC(=O)C(Cc2ccc(OC3OC(CO)C(OC4OC5COC6(CCCCC6)OC5C(O)C4O)C(O)C3O)cc2)NC1=O (stereo not shown) [Example 203]
MIC Staphylococcus haemolyticus (GC 4546) (Staphylococcus sp.): 1 µg/mL (≈ 0.727 µM)

MIC Staphylococcus aureus (ATCC 29213) (Staphylococcus sp.): >64 µg/mL
MIC Staphylococcus aureus (GC 1131) (Staphylococcus sp.): >64 µg/mL
MIC Staphylococcus aureus (GC 3051) (Staphylococcus sp.): >64 µg/mL
MIC Staphylococcus aureus (GC 3053) (Staphylococcus sp.): >64 µg/mL
MIC Staphylococcus aureus (GC 4541) (Staphylococcus sp.): >64 µg/mL
MIC Staphylococcus aureus (GC 4542) (Staphylococcus sp.): >64 µg/mL
MIC Staphylococcus aureus-SMITH (GC 4543) (Staphylococcus sp.): >64 µg/mL
MIC Staphylococcus aureus (GC 4544) (Staphylococcus sp.): >64 µg/mL
MIC Staphylococcus aureus (GC 4545) (Staphylococcus sp.): >64 µg/mL
MIC Coagulase Negative Staphylococcus (GC 4547) (Staphylococcus sp.): 64 µg/mL (≈ 50.9 µM)
MIC Coagulase Negative Staphylococcus (GC 4548) (Staphylococcus sp.): 64 µg/mL (≈ 50.9 µM)
MIC Coagulase Negative Staphylococcus (GC 4549) (Staphylococcus sp.): >64 µg/mL
MIC Coagulase Negative Staphylococcus (GC 4551) (Staphylococcus sp.): >64 µg/mL
MIC Coagulase Negative Staphylococcus (GC 6257) (Staphylococcus sp.): 32 µg/mL (≈ 25.5 µM)
MIC Streptococcus pneumoniae (ATCC 6301) (Streptococcus sp.; strain ATCC 6301): >64 µg/mL
MIC Streptococcus pneumoniae (GC 1894) (Streptococcus sp.; strain GC 1894): 64 µg/mL (≈ 50.9 µM)
MIC Streptococcus pyogenes (GC 4563) (Streptococcus sp.; strain GC 4563): 64 µg/mL (≈ 50.9 µM)
MIC Streptococcus agalactiae (GC 4564) (Streptococcus sp.; strain GC 4564): >64 µg/mL
MIC Streptococcus pneumoniae (GC 4565) (Streptococcus sp.; strain GC 4565): >64 µg/mL
MIC Enterococcus faecalis (ATCC 29212) (Enterococcus sp.; strain ATCC 29212): 64 µg/mL (≈ 50.9 µM)
MIC Enterococcus faecalis (GC 2242) (Enterococcus sp.; strain GC 2242): 64 µg/mL (≈ 50.9 µM)
MIC Enterococcus faecium (GC 2243) (Enterococcus sp.; strain GC 2243): 64 µg/mL (≈ 50.9 µM)
MIC Enterococcus faecalis (GC 2691) (Enterococcus sp.; strain GC 2691): >64 µg/mL
MIC Enterococcus faecalis (GC 3059) (Enterococcus sp.; strain GC 3059): >64 µg/mL
MIC Enterococcus faecalis (GC 4552) (Enterococcus sp.; strain GC 4552): >64 µg/mL
MIC Enterococcus faecalis (GC 4553) (Enterococcus sp.; strain GC 4553): 32 µg/mL (≈ 25.5 µM)
MIC Enterococcus faecalis (GC 4554) (Enterococcus sp.; strain GC 4554): >64 µg/mL
MIC Enterococcus faecium (GC 4556) (Enterococcus sp.; strain GC 4556): 64 µg/mL (≈ 50.9 µM)
MIC Enterococcus faecium (GC 4557) (Enterococcus sp.; strain GC 4557): 32 µg/mL (≈ 25.5 µM)
MIC Enterococcus avium (GC 4558) (Enterococcus sp.; strain GC 4558): 64 µg/mL (≈ 50.9 µM)
MIC Enterococcus faecalis (GC 6189) (Enterococcus sp.; strain GC 6189): >64 µg/mL
MIC Escherichia coli (ATCC 25922) (Escherichia coli; strain ATCC 25922, broth dilution): >64 µg/mL
MIC Escherichia coli (GC 4559) (Escherichia coli; strain GC 4559, broth dilution): >64 µg/mL
MIC Escherichia coli (GC 4560) (Escherichia coli; strain GC 4560, broth dilution): 32 µg/mL (≈ 25.5 µM)
Structure (SMILES): CC(c1ccccc1)C1NC(=O)CNC(=O)C(CO)NC(=O)C(C(O)C2CNC(=N)N2C2OC(CO)C(O)C(O)C2O)NC(=O)C(C(O)C2CNC(=N)N2)NC(=O)C(Cc2ccc(O)c(NC(=S)Nc3cc(C(F)(F)F)cc(C(F)(F)F)c3)c2)NC1=O (stereo not drawn) [Example 24, Cyclo[glycyl-β-methylphenylalanyl-3-[[[3,5-bis(trifluoromethyl)phenyl]carbamothioyl]amino]-tyrosyl-3-(2-iminoimidazolidin-4-yl)seryl-3-(3-hexopyranosyl-2-iminoimidazolidin-4-y)-serylseryl]]
MIC Staphylococcus haemolyticus (GC 4546) (Staphylococcus sp.): 64 µg/mL (≈ 50.9 µM)
